According to US20050065208A1, “Benzofuranes and their use in the treatment of atrial fibrillation” (priority 2001, published 2005):
Like-named read-outs stand apart in the source and are kept apart here.

Experiments:
[1] = target: T1, IK(Ado), adenosine activated K-current (Homo sapiens, UniProt P48544+P48549); assay: Voltage clamp on cardiomyocyte cultures: inhibition of adenosine-induced K-current; format: cell-based; parameters: key to Blocking activity on IK(Ado): Yes: The compound has been demonstrated to inhibit the particular current (reference within parenthesis).; No: The compound has been demonstrated to not inhibit the particular current (reference within parenthesis).; U: No data regarding interaction of the compound with the particular current has been found in the literature; conditions: for Blocking activity on IK(Ado): Table 2, own voltage clamp data; for inhibition at 50 µM: read-out: Inhibition of IK (Ado) Induced by Adenosine, % Inh
T1 construct: electrophysiology technique applied to cardiomyocyte cultures; endogenous in cells
T1 sequence (P48549 1-501): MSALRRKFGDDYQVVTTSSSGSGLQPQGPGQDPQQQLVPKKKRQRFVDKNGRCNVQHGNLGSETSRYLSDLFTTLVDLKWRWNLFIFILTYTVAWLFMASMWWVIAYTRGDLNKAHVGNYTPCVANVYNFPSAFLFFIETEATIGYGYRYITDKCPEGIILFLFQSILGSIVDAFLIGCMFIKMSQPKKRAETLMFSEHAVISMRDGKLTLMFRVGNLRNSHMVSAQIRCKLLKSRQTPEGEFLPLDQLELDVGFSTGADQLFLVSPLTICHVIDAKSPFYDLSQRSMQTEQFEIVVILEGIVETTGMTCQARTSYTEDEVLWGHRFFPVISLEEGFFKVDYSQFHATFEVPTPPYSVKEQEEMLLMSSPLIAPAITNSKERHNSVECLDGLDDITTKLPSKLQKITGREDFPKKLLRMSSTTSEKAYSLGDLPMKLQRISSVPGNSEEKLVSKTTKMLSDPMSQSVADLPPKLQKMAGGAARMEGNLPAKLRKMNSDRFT
T1 sequence (P48544 1-419): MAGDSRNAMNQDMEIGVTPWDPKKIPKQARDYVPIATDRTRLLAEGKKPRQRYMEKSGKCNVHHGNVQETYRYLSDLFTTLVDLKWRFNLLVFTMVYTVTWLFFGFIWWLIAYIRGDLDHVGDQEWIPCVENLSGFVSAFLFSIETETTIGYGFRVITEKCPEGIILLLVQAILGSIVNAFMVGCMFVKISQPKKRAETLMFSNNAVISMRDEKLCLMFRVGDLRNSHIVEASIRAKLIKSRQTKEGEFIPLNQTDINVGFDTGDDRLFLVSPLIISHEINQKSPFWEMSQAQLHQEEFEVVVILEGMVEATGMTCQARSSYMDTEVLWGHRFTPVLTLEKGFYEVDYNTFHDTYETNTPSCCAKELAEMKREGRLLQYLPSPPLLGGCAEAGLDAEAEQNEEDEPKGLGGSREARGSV
Description: (§1) In the present invention acute and chronic effects of various compounds have been investigated by using electrophysiology technique applied to cardiomyocyte cultures.
(§2) The inhibitory effects occur within seconds after induction of the current with ACh, Ado or dinitrophenole (DNP reduces intracellular ATP). The acute inhibitory effects caused by the compounds of the present invention on these K-currents in cardiac muscle tissue had not previously been discovered. The reasons for this include the fact that these ligand activated K-currents (IK(Ado), IK(ACh) and IK(ATP)) are preferentially active in the atrial cardiomyocytes (Workman A J et al. Cardiovasc Res 1999 September;43(4):974-84; Koumi S-I, and Wasserstorm A. American Journal of Physiology 266[35], H1812-H1821. 1994), while previous studies have been carried out with tissue from cardiac ventricles. Furthermore, IK(Ado) and IK(ACh) must first be induced via the M2 or A1 receptor (with ACh and Ado respectively) before any inhibition can be observed. Without any agonist at the extracellular site of the membrane these ligand-gated channels probably have only minor roles in shaping repolarization but, when activated by extracellular acetylcholine or adenosine, they can substantially shorten action potential duration in the atrium (Tristani-Firouzi M et al. Am J Med 2001 January; 110(1):50-9).
(§3) The following Table 1 illustrates the potency (IC50-values) of compounds of formulae I and II compared with other anti-arrhythmic drugs to inhibit the transmembrane currents IK(Ado) and IK(ACh) after stimulation of the currents with Adenosine or Acetylcholine (or Carbachol).

[2] = target: T2, IKs, slow component of the delayed rectifier K-current (Homo sapiens, UniProt P51787); assay: Voltage clamp: slow component of the delayed rectifier K-current; format: cell-based; parameters: key: Yes: The compound has been demonstrated to inhibit the particular current (reference within parenthesis).; No: The compound has been demonstrated to not inhibit the particular current (reference within parenthesis).; U: No data regarding interaction of the compound with the particular current has been found in the literature; conditions: Table 2, own voltage clamp data
Description: (§4) Results from voltage clamp experiments with compounds of the invention on other ion-currents than IK(Ado), IK(ACh) and IK(ATP) are included in Table 2.

[3] = target: T3, INa, depolarizing Na-current (Homo sapiens, UniProt Q14524); assay: Voltage clamp: depolarizing Na-current; format: cell-based; parameters: key: Yes: The compound has been demonstrated to inhibit the particular current (reference within parenthesis).; No: The compound has been demonstrated to not inhibit the particular current (reference within parenthesis).; U: No data regarding interaction of the compound with the particular current has been found in the literature; conditions: Table 2, own voltage clamp data
Description: as §4

[4] = test system: Ito, transient outward K-current; assay: Voltage clamp: transient outward K-current; format: cell-based; parameters: key: Yes: The compound has been demonstrated to inhibit the particular current (reference within parenthesis).; No: The compound has been demonstrated to not inhibit the particular current (reference within parenthesis).; U: No data regarding interaction of the compound with the particular current has been found in the literature; conditions: Table 2, own voltage clamp data
Description: as §4

[5] = target: T4, IK(ACh), AcetylCholine activated K-current (Homo sapiens, UniProt P48544+P48549); assay: Voltage clamp on cardiomyocyte cultures: inhibition of K-current induced by ACh or carbachol; format: cell-based; parameters: key to Blocking activity on IK(ACh): Yes: The compound has been demonstrated to inhibit the particular current (reference within parenthesis).; No: The compound has been demonstrated to not inhibit the particular current (reference within parenthesis).; U: No data regarding interaction of the compound with the particular current has been found in the literature; conditions: for Blocking activity on IK(ACh): Table 2, own voltage clamp data; for inhibition at 50 µM: read-out: Inhibition of IK (ACh) (Induced by ACh or Carbachol), % Inh
T4 construct: electrophysiology technique applied to cardiomyocyte cultures; endogenous in cells
T4 sequence (P48549 1-501): T1 sequence (P48549 1-501)
T4 sequence (P48544 1-419): T1 sequence (P48544 1-419)
Description: as §1, §2, §3

[6] = test system: IK1, inward rectifier K-current; assay: Voltage clamp: inward rectifier K-current; format: cell-based; parameters: key: Yes: The compound has been demonstrated to inhibit the particular current (reference within parenthesis).; No: The compound has been demonstrated to not inhibit the particular current (reference within parenthesis).; U: No data regarding interaction of the compound with the particular current has been found in the literature; conditions: Table 2, own voltage clamp data
Description: as §4

[7] = target: T5, IK(ATP), ATP-sensitive K-current (Homo sapiens, UniProt Q14654); assay: Voltage clamp on cardiomyocyte cultures: inhibition of ATP-sensitive K-current (induced with DNP); format: cell-based; parameters: key: Yes: The compound has been demonstrated to inhibit the particular current (reference within parenthesis).; No: The compound has been demonstrated to not inhibit the particular current (reference within parenthesis).; U: No data regarding interaction of the compound with the particular current has been found in the literature; conditions: Table 2, own voltage clamp data
T5 construct: electrophysiology technique applied to cardiomyocyte cultures; endogenous in cells; current induced with dinitrophenole
Description: as §1, §2

[8] = target: T3, INa, depolarizing Na-current; parameters: key: Yes: The compound has been demonstrated to inhibit the particular current (reference within parenthesis).; No: The compound has been demonstrated to not inhibit the particular current (reference within parenthesis).; U: No data regarding interaction of the compound with the particular current has been found in the literature; conditions: Table 2, literature; cited from earlier work
[9] = target: T5, IK(ATP), ATP-sensitive K-current; parameters: key: Yes: The compound has been demonstrated to inhibit the particular current (reference within parenthesis).; No: The compound has been demonstrated to not inhibit the particular current (reference within parenthesis).; U: No data regarding interaction of the compound with the particular current has been found in the literature; conditions: Table 2, literature; cited from earlier work
[10] = test system: IK1, inward rectifier K-current; parameters: key: Yes: The compound has been demonstrated to inhibit the particular current (reference within parenthesis).; No: The compound has been demonstrated to not inhibit the particular current (reference within parenthesis).; U: No data regarding interaction of the compound with the particular current has been found in the literature; conditions: Table 2, literature; cited from earlier work
[11] = target: T1, IK(Ado), adenosine activated K-current; parameters: key to Blocking activity on IK(Ado): Yes: The compound has been demonstrated to inhibit the particular current (reference within parenthesis).; No: The compound has been demonstrated to not inhibit the particular current (reference within parenthesis).; U: No data regarding interaction of the compound with the particular current has been found in the literature; conditions: cited from earlier work
[12] = test system: triiodthyronine (T3)-signalling; assay: Antagonism of T3-signalling action in cells; format: cell-based; conditions: manuscript in preparation
[13] = target: T2, IKs, slow component of the delayed rectifier K-current; parameters: key: Yes: The compound has been demonstrated to inhibit the particular current (reference within parenthesis).; No: The compound has been demonstrated to not inhibit the particular current (reference within parenthesis).; U: No data regarding interaction of the compound with the particular current has been found in the literature; conditions: Table 2, literature; cited from earlier work
[14] = target: T4, IK(ACh), AcetylCholine activated K-current; parameters: key to Blocking activity on IK(ACh): Yes: The compound has been demonstrated to inhibit the particular current (reference within parenthesis).; No: The compound has been demonstrated to not inhibit the particular current (reference within parenthesis).; U: No data regarding interaction of the compound with the particular current has been found in the literature; conditions: cited from earlier work

T3 sequence (Q14524 whole entry): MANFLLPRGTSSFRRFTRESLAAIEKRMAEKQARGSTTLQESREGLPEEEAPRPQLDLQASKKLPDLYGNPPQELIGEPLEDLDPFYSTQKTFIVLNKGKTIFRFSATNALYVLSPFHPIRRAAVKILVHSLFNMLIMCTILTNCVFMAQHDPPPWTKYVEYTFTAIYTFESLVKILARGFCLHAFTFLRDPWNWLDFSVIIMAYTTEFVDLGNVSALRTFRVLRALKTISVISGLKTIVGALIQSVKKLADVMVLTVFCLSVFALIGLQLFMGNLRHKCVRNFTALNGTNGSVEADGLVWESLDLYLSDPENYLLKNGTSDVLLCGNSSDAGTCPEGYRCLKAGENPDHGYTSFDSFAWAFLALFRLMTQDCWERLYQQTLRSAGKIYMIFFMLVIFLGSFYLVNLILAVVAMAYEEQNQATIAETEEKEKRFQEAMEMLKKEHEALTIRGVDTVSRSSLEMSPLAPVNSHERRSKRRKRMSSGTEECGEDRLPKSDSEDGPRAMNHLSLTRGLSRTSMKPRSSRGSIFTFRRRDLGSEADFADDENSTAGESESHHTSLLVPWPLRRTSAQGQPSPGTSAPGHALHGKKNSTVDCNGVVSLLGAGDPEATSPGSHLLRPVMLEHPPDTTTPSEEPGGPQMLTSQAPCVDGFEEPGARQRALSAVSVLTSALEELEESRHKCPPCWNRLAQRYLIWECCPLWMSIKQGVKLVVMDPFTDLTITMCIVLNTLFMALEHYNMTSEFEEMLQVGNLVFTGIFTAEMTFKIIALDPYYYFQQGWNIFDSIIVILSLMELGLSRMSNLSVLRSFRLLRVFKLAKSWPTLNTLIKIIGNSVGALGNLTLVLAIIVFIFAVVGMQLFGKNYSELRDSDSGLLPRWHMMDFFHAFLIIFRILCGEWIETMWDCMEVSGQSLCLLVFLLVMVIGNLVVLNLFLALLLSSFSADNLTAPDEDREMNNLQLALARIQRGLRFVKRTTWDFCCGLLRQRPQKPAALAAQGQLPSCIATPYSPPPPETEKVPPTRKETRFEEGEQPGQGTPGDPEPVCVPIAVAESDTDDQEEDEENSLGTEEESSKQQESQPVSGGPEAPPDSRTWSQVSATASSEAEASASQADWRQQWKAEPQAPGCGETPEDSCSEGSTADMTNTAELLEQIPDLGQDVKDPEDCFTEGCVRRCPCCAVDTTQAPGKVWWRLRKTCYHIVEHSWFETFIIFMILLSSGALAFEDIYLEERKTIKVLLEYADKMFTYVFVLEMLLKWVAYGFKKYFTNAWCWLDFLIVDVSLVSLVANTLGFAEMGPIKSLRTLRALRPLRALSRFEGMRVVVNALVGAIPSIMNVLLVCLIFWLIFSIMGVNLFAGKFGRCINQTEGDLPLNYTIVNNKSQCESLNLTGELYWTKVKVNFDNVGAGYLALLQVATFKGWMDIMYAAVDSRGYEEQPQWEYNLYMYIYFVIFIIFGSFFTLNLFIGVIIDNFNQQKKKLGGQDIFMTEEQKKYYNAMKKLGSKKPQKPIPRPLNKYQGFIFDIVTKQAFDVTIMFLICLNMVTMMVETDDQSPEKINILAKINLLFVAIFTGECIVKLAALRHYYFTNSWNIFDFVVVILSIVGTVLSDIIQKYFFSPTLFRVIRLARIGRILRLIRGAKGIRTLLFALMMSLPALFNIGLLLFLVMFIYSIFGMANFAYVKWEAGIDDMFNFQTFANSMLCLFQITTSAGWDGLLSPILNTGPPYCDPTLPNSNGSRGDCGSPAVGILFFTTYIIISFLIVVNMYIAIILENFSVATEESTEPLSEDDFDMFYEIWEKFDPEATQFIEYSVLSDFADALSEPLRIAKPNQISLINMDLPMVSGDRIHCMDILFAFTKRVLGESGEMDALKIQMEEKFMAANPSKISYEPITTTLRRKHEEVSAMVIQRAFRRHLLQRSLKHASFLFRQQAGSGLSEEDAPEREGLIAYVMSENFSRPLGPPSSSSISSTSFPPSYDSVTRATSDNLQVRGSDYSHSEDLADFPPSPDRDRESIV
T5 sequence (Q14654 whole entry): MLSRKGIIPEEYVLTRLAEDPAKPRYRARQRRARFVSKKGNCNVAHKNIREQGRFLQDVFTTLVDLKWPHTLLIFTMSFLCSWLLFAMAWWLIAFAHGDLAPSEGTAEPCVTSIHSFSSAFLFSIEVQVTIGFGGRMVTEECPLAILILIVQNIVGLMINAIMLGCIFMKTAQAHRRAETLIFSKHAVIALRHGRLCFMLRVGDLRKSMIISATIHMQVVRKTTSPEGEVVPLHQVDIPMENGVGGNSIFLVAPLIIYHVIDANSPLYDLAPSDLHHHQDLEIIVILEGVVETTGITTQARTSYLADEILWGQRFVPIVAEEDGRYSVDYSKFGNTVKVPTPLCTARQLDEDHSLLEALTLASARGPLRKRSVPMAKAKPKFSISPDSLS
T5 sequence (O60706 whole entry partner): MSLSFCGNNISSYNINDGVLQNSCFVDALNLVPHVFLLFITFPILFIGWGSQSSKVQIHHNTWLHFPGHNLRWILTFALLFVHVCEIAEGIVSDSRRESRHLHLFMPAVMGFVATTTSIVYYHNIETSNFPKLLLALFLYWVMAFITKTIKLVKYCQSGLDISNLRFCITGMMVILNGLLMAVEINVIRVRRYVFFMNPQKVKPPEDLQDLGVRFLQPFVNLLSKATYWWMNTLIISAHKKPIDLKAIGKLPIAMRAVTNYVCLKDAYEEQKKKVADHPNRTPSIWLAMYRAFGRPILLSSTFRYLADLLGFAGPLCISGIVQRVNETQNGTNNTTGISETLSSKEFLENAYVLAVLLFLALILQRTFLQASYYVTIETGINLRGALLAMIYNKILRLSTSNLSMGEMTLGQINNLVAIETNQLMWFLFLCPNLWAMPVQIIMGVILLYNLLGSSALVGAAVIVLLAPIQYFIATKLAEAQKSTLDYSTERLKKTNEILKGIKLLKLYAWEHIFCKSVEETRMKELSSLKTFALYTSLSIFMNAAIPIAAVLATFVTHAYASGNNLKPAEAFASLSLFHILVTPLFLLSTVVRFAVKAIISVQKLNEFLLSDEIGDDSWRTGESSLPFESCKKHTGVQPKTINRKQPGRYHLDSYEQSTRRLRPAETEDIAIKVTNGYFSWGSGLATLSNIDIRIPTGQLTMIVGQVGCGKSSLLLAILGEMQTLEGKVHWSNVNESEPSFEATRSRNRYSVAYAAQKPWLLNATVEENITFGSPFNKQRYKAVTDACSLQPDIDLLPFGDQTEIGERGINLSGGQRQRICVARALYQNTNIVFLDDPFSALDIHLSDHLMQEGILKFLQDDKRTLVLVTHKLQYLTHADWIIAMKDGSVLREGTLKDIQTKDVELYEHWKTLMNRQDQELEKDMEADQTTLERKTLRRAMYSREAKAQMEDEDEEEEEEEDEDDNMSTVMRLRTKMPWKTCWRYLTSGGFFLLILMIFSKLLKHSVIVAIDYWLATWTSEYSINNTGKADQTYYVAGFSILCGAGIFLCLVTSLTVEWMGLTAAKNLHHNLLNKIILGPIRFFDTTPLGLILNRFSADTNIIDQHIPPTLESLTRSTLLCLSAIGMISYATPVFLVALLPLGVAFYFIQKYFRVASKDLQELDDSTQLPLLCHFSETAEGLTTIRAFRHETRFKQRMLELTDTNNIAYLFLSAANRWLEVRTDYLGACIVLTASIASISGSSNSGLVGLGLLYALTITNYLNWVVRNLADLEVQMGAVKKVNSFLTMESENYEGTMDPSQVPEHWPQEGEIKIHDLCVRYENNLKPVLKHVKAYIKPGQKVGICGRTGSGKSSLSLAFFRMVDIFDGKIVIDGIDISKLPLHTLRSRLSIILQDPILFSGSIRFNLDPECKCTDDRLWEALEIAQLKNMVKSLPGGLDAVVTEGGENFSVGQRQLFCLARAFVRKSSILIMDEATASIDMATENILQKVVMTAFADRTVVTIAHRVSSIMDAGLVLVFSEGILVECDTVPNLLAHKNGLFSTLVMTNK

| SMILES | Blocking activity on IK(Ado) [1] | inhibition at 50 µM [1] | Blocking activity on IKs [2] | Blocking activity on INa [3] | Blocking activity on Ito [4] | Blocking activity on IK(ACh) [5] | inhibition at 50 µM [5] | Blocking activity on IK1 [6] | Blocking activity on IK(ATP) [7] | Blocking activity on INa [8] | Blocking activity on IK(ATP) [9] | Blocking activity on IK1 [10] | Blocking activity on IK(Ado) ([11]; Table 2, literature) | Block of ligand-gated current IK(Ado), in words ([11]; Watanabe et al.) | IC50 ([11]; current induced by adenosine, literature value, read-out: Inhibition of IK (Ado) Induced by Adenosine (IC50)) | Antagonism of triiodthyronine (T3)-signalling action in cells [12] | Blocking activity on IKs [13] | Blocking activity on IK(ACh) ([14]; Table 2, literature) | Block of ligand-gated current IK(ACh), in words ([14]; Watanabe et al.) | IC50 ([14]; current induced by ACh or carbachol, literature value, read-out: Inhibition of IK (ACh) (Induced by ACh or Carbachol) (IC50)) |
| --- | --- | --- | --- | --- | --- | --- | --- | --- | --- | --- | --- | --- | --- | --- | --- | --- | --- | --- | --- | --- |
| Cc1oc2ccccc2c1Cc1cc(I)c(OCC(=O)O)c(I)c1 [Example E6, 2-methyl-3-(3,5-diiodo-4-carboxymethoxy-benzyl)benzofuran] | Yes | 100% | No | No | No | Yes | 100% | No | Yes |  |  |  |  |  |  |  |  |  |  |  |
| Cc1oc2ccccc2c1Cc1cc(C(C)C)c(OCC(=O)O)c(C(C)C)c1 [Example E4, 2-methyl-3-(3,5-diisopropyl-4-carboxymethoxybenzyl)benzofuran] | Yes | 100% | No | No | No | Yes | 100% | No | Yes |  |  |  |  |  |  |  |  |  |  |  |
| CCCCc1oc2ccccc2c1C(=O)c1cc(I)c(OCCN(CC)CC)c(I)c1 [Amiodarone] |  |  |  |  |  |  |  |  |  | Yes | Yes | Yes | Yes | does block | 2000 nM | antagonize | Yes | Yes | does block | 2000 nM |
